According to EP1210950B1, “Composition against Coccidiosis” (New Pharma Research Sweden AB, priority 2000, dated 2002):

What was measured:
Eimeria spp.oocysts [1] = test: Anticoccidiocidal activity, test A3 (single components; oocyst count in faeces, Mc-Master technique); type: in vivo, chickens; details: 20 birds in each group; for Mean No. of Eimeria spp.oocysts/gram faeces/group, 5 d.p.i. / Mean No. of Eimeria spp.oocysts/gram faeces/group, 6 d.p.i. / Mean No. of Eimeria spp.oocysts/gram faeces/group, 7 d.p.i. / Mean No. of Eimeria spp.oocysts/gram faeces/group, 8 d.p.i. / Mean No. of Eimeria spp.oocysts/gram faeces/group, 9 d.p.i. / Mean No. of Eimeria spp.oocysts/gram faeces/group, 10 d.p.i. / Mean No. of Eimeria spp.oocysts/gram faeces/group, 12 d.p.i.: during feeding with tested product; for Mean No. of Eimeria spp.oocysts/gram faeces/group, 5 d.p.i.: oral infection with mixture of 5 Eimeria strains, ppm in feed as given per group; for Total number of oocysts: sum of 5-12 d.p.i.
Text: A total of 100 one day old Habbared X breed chickens were used in the test. They were reared on un-medicated feed as one group during the first 3 days. After that they were allocated into 5 groups (20 each) in 5 separate (1 x 1 meter) pens. With the beginning of the day 8 of bird life, the composition to be tested was mixed into the feed of each group and was used for daily feeding. Fresh water was supplied ad-libetum. The test groups were: [table] The birds were kept on medicated feed for totally […]. […] Eimeria acervulina, E. maxima, E. necatrix, E. tenella and E. brunetti. Fresh fecal droplets were collected daily from the 4th day post experimental infection until day 13 post infection. Mean number of oocyst per gram […] for each group were calculated using the Mc-Master technique according to Soulsby (1984).

Eimeria spp.oocysts [2] = test: Anticoccidiocidal activity, test A1 (oocyst count in faeces of infected chickens, medicated feed); type: in vivo; details: 23 birds in each group
Text: A total of 92 one day old Habbared X breed chickens were used in the test. They were allocated into 4 groups (23 birds in each group), one group serving as a control group.
(§1) Each composition to be tested was mixed in a sufficient amount of feed for each group and was used for daily feeding from the day zero of the test. Fresh water was supplied ad-libetum.

Eimeria spp.oocysts [3] = test: Anticoccidiocidal activity, test A2 (oocyst count in faeces of infected chickens, medicated feed); type: in vivo; details: 22 birds in each group
Text: A total of 88 one day old Habbared X breed chickens were used in the test. They were allocated into 4 groups (22 birds in each group), one group serving as a control group.
as §1

[4] = 6 d.p.i., during feeding with tested product, ppm in feed as given per group
[5] = 7 d.p.i., during feeding with tested product
[6] = 8 d.p.i., during feeding with tested product
[7] = 9 d.p.i., during feeding with tested product
[8] = 10 d.p.i., during feeding with tested product
[9] = 11 d.p.i., during feeding with tested product
[10] = 12 d.p.i., during feeding with tested product
[11] = 13 d.p.i., during feeding with tested product

NC(N)=Nc1nc(CSCCC(N)=NS(N)(=O)=O)cs1 [Famo-tidine, Famotidine]
Mean No. of Eimeria spp.oocysts/gram faeces/group, 5 d.p.i. (Eimeria spp.oocysts [1]): 0.0 oocysts/gram faeces/group (number per thousand oocysts)
Mean No. of Eimeria spp.oocysts/gram faeces/group, 6 d.p.i. (Eimeria spp.oocysts [1]): 0.0 oocysts/gram faeces/group (number per thousand oocysts)
Mean No. of Eimeria spp.oocysts/gram faeces/group, 7 d.p.i. (Eimeria spp.oocysts [1]): 160 oocysts/gram faeces/group (number per thousand oocysts)
Mean No. of Eimeria spp.oocysts/gram faeces/group, 8 d.p.i. (Eimeria spp.oocysts [1]): 280 oocysts/gram faeces/group (number per thousand oocysts)
Mean No. of Eimeria spp.oocysts/gram faeces/group, 9 d.p.i. (Eimeria spp.oocysts [1]): 460 oocysts/gram faeces/group (number per thousand oocysts)
Mean No. of Eimeria spp.oocysts/gram faeces/group, 10 d.p.i. (Eimeria spp.oocysts [1]): 10 oocysts/gram faeces/group (number per thousand oocysts)
Mean No. of Eimeria spp.oocysts/gram faeces/group, 12 d.p.i. (Eimeria spp.oocysts [1]): 0 oocysts/gram faeces/group (number per thousand oocysts)
Total number of oocysts (Eimeria spp.oocysts [1]): 910 oocysts/gram faeces/group (number per thousand oocysts)

Nc1nc2ncc(CNc3ccc(C(=O)N[C@@H](CCC(=O)O)C(=O)O)cc3)nc2c(=O)[nH]1 [folic acid]
Mean No. of Eimeria spp.oocysts/gram faeces/group, 5 d.p.i. (Eimeria spp.oocysts [1]): 0 oocysts/gram faeces/group (number per thousand oocysts)
Mean No. of Eimeria spp.oocysts/gram faeces/group, 6 d.p.i. (Eimeria spp.oocysts [1]): 22 oocysts/gram faeces/group (number per thousand oocysts)
Mean No. of Eimeria spp.oocysts/gram faeces/group, 7 d.p.i. (Eimeria spp.oocysts [1]): 251 oocysts/gram faeces/group (number per thousand oocysts)
Mean No. of Eimeria spp.oocysts/gram faeces/group, 8 d.p.i. (Eimeria spp.oocysts [1]): 310 oocysts/gram faeces/group (number per thousand oocysts)
Mean No. of Eimeria spp.oocysts/gram faeces/group, 9 d.p.i. (Eimeria spp.oocysts [1]): 220 oocysts/gram faeces/group (number per thousand oocysts)
Mean No. of Eimeria spp.oocysts/gram faeces/group, 10 d.p.i. (Eimeria spp.oocysts [1]): 3 oocysts/gram faeces/group (number per thousand oocysts)
Mean No. of Eimeria spp.oocysts/gram faeces/group, 12 d.p.i. (Eimeria spp.oocysts [1]): 0 oocysts/gram faeces/group (number per thousand oocysts)
Total number of oocysts (Eimeria spp.oocysts [1]): 806 oocysts/gram faeces/group (number per thousand oocysts)

CN[C@@H]1[C@H](O[C@H]2[C@H](O[C@H]3[C@H](O)[C@@H](O)[C@H](NC(=N)N)[C@@H](O)[C@@H]3NC(=N)N)O[C@@H](C)[C@]2(O)CO)O[C@@H](CO)[C@H](O)[C@H]1O [dihydro-streptomycin, dihydrostreptomycin]
Mean No. of Eimeria spp.oocysts/gram faeces/group, 5 d.p.i. (Eimeria spp.oocysts [1]): 0.0 oocysts/gram faeces/group (number per thousand oocysts)
Mean No. of Eimeria spp.oocysts/gram faeces/group, 6 d.p.i. (Eimeria spp.oocysts [1]): 38 oocysts/gram faeces/group (number per thousand oocysts)
Mean No. of Eimeria spp.oocysts/gram faeces/group, 7 d.p.i. (Eimeria spp.oocysts [1]): 710 oocysts/gram faeces/group (number per thousand oocysts)
Mean No. of Eimeria spp.oocysts/gram faeces/group, 8 d.p.i. (Eimeria spp.oocysts [1]): 138 oocysts/gram faeces/group (number per thousand oocysts)
Mean No. of Eimeria spp.oocysts/gram faeces/group, 9 d.p.i. (Eimeria spp.oocysts [1]): 138 oocysts/gram faeces/group (number per thousand oocysts)
Mean No. of Eimeria spp.oocysts/gram faeces/group, 10 d.p.i. (Eimeria spp.oocysts [1]): 0 oocysts/gram faeces/group (number per thousand oocysts)
Total number of oocysts (Eimeria spp.oocysts [1]): 956 oocysts/gram faeces/group (number per thousand oocysts)

Cc1nc(C)c(Cl)c(O)c1Cl [Clopidol]
Mean No. of Eimeria spp.oocysts/gram faeces/group, 6 d.p.i. (Eimeria spp.oocysts [2]; [4]): 8 oocysts/gram faeces/group (number per thousand oocysts)
Mean No. of Eimeria spp.oocysts/gram faeces/group, 7 d.p.i. (Eimeria spp.oocysts [2]; [5]): 9600 oocysts/gram faeces/group (number per thousand oocysts)
Mean No. of Eimeria spp.oocysts/gram faeces/group, 8 d.p.i. (Eimeria spp.oocysts [2]; [6]): 1872 oocysts/gram faeces/group (number per thousand oocysts)
Mean No. of Eimeria spp.oocysts/gram faeces/group, 9 d.p.i. (Eimeria spp.oocysts [2]; [7]): 3900 oocysts/gram faeces/group (number per thousand oocysts)
Mean No. of Eimeria spp.oocysts/gram faeces/group, 10 d.p.i. (Eimeria spp.oocysts [2]; [8]): 420 oocysts/gram faeces/group (number per thousand oocysts)
Mean No. of Eimeria spp.oocysts/gram faeces/group, 11 d.p.i. (Eimeria spp.oocysts [2]; [9]): 14 oocysts/gram faeces/group (number per thousand oocysts)
Mean No. of Eimeria spp.oocysts/gram faeces/group, 12 d.p.i. (Eimeria spp.oocysts [2]; [10]): 53 oocysts/gram faeces/group (number per thousand oocysts)
Mean No. of Eimeria spp.oocysts/gram faeces/group, 13 d.p.i. (Eimeria spp.oocysts [2]; [11]): 250 oocysts/gram faeces/group (number per thousand oocysts)
Total number of oocysts (Eimeria spp.oocysts [2]; sum of 6-13 d.p.i.): 16117 oocysts/gram faeces/group (number per thousand oocysts)
Mean No. of Eimeria spp.oocysts/gram faeces/group, 6 d.p.i. (Eimeria spp.oocysts [3]; [4]): 2 oocysts/gram faeces/group (number per thousand oocysts)
Mean No. of Eimeria spp.oocysts/gram faeces/group, 7 d.p.i. (Eimeria spp.oocysts [3]; [5]): 900 oocysts/gram faeces/group (number per thousand oocysts)
Mean No. of Eimeria spp.oocysts/gram faeces/group, 8 d.p.i. (Eimeria spp.oocysts [3]; [6]): 1300 oocysts/gram faeces/group (number per thousand oocysts)
Mean No. of Eimeria spp.oocysts/gram faeces/group, 9 d.p.i. (Eimeria spp.oocysts [3]; [7]): 980 oocysts/gram faeces/group (number per thousand oocysts)
Mean No. of Eimeria spp.oocysts/gram faeces/group, 10 d.p.i. (Eimeria spp.oocysts [3]; [8]): 1500 oocysts/gram faeces/group (number per thousand oocysts)
Mean No. of Eimeria spp.oocysts/gram faeces/group, 11 d.p.i. (Eimeria spp.oocysts [3]; [9]): 200 oocysts/gram faeces/group (number per thousand oocysts)
Mean No. of Eimeria spp.oocysts/gram faeces/group, 12 d.p.i. (Eimeria spp.oocysts [3]; [10]): 200 oocysts/gram faeces/group (number per thousand oocysts)
Mean No. of Eimeria spp.oocysts/gram faeces/group, 13 d.p.i. (Eimeria spp.oocysts [3]; [11]): 130 oocysts/gram faeces/group (number per thousand oocysts)
Total number of oocysts (Eimeria spp.oocysts [3]; sum of 6-13 d.p.i.): 5212 oocysts/gram faeces/group (number per thousand oocysts)
